Measurements published in patent US20150018369A1 (priority 2012, published 2015).
Where two headings read alike, the source gives them in different places.

Tests used:
T98 g cells = experiment: Cell viability assay (WST-1), SAR of AI compounds at inducing cell death; type: cell-based, human
Procedure: (§1) Cells were plated media supplemented with 10% serum in 96-well plates (10^4 cells per wellI; 0.1 ml per well). Once they reached ˜70% confluence, they were rinsed with PBS and kept for an additional 24 his in media supplemented with 1% serum, at which time drugs or vehicle (DMSO, 0.1%, prepared in 10 μl serum-free media) were directly added to each well. After 3 days, cell viability was assessed using the Cell Proliferation Reagent WST-1 (Roche, Indianapolis, Ind.). Briefly, WST-1 reagent (10 μl) was added to each well for 3 hrs at 37° C. with 5% CO2 and WST-1 products were read at 450 nm using Packard SpectraCount™.
Because the strongest toxic effect of WIN55212-2 (ST-1) was measured in T98 g cells, these cells are used as readout to study the structure activity relationship (SAR) of AI compounds at inducing cell death. Table 2 provides the chemical structure, potency and efficacy of several AI compounds.

[1] = system: protein expressed by NG108-15 cells; conditions: cited from earlier work
[2] = system: T98 g, MDA231 and sknmc cells; experiment: Killing of cell lines lacking CB1/CB2 (sensitivity profile); type: cell-based, human; conditions: for potencies and efficacies at killing these cells: T98 g, MDA231 and sknmc cells
Procedure: as §1
Based on this evidence, it was determined if WIN55212-2 differentially kills T98 g, MDA231 and […] cells, thus providing an index of AI receptor functionality in these cells. Also tested is Δ^9-THC (classic cannabinoid) and CP55940 (non-classical cannabinoid).

[3] = system: hippocampal slices from CB1-/- mice; conditions: blocked by capsazepine; cited from earlier work
[4] = system: homogenates from CB1-/- mice cerebellum; conditions: insensitive to SR144528; cited from earlier work
AI receptors = experiment: GTPγS binding in HEK293 cell homogenates; type: biochemical, human
From the text: When comparing the overall amino acid sequence of GPR124 to that of CB1 and CB2 receptors no significant homology was found. However, when focusing the comparison to the amino acid sequence encoding for the third transmembrane domains of GPR124 and CB2 receptors, 84% homology was found (FIG. 5a). […] Therefore, it is likely that ST-1, ST-11, and other AI compounds interact directly with the third transmembrane domain of GPR124. To determine the signaling mechanism of AI receptors, effect of ST-11 in HEX293 cells, which express GPR124 endogenously and commonly used to study GPCR pharmacology and signaling pathway, was tested.

human CB1 receptors = biological target: T1, human CB1 receptors (Homo sapiens, UniProt P21554); experiment: HA-tagged receptor internalization, CB1; type: cell-based; conditions: FIG. 2a
T1 construct: HA; expressed in transfected cells
From the text: (§2) FIGS. 2d and 2e illustrate the co-docking of CP55940 and either WIN55212-2 (d) or ST-11 (e) in hCB1 receptors.

CB2 = CB2 (Homo sapiens, UniProt P34972); experiment: HA-tagged receptor internalization, CB2; type: cell-based; design: HA; expressed in transfected cells; conditions: FIG. 2b
From the text: as §2

[5] = T98 g cells, cell death, viability after 3 days
[6] = Homo sapiens, T98G, 72 h, T98 g cells, cell death, viability after 3 days, read-out: EC50

T1 sequence (P21554 whole entry): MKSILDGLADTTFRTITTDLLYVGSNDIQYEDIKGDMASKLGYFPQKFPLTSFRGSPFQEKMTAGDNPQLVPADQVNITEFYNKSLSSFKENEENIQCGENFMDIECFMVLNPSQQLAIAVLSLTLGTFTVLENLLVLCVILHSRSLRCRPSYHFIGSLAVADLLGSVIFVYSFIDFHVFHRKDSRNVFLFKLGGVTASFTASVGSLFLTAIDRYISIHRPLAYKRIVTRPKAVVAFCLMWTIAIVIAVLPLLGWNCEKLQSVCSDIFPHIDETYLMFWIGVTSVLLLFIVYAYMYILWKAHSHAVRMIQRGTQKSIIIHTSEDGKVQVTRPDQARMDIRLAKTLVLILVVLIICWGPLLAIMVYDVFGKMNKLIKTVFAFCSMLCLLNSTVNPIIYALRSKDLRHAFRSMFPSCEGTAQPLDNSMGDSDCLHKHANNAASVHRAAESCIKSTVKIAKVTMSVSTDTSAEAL
CB2, sequence (P34972 whole entry): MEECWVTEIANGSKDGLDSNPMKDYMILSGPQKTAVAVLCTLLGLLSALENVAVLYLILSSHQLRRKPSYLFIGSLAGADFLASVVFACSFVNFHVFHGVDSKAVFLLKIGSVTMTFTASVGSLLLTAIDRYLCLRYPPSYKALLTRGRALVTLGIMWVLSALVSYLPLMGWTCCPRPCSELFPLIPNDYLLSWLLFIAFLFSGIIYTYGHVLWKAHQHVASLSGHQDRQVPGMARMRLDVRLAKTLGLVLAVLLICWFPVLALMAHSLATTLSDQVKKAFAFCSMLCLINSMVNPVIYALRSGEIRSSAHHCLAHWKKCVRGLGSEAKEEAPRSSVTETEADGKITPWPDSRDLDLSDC

Molecule: CCOC(=O)N1CCc2c(c3cc(C(=O)c4ccc(C)c5ccccc45)ccc3n2CC)C1
- EC50 (T98 g cells; Homo sapiens, T98G, 72 h): 6 µM

Molecule: 5-ethyl-7-methoxy-2-[(4-methylnaphthalen-1-yl)carbonyl]-1H,2H,3H,4H,5H-pyrido[4,3-b]indole [ST-33]
- EC50 (T98 g cells; T98 g cells, cell death, viability after 3 days, read-out: EC50): 1.4 µM

Molecule: CCCCCCC(C)(C)c1ccc([C@@H]2C[C@H](O)CC[C@H]2CCCO)c(O)c1 [CP55940, CP55,940]
- competition for WIN-2 binding [1]: did not compete
- potencies and efficacies at killing these cells [2]: inconsistent potencies and efficacies

Molecule: Cc1c(C(=O)c2cccc3ccccc23)c2cccc3c2n1[C@@H](CN1CCOCC1)CO3 [ST-1, WIN55212-2]
- EC50 (T98 g cells; Homo sapiens, T98G, 72 h): 2.1 µM
- binding affinity [1]: nanomolar affinity
- excitatory transmission [3]: inhibit excitatory transmission
- EC50 ([2]; Homo sapiens, range over the three cell lines (FIG. 1), read-out: potency at killing T98 g, MDA231 and sknmc cells): 1500 to 2900 nM
- toxic efficacy ([2]; rank order of cell lines): T98 g>MDA>sknmc
- [35S]-GTPγS binding [4]: increase [^35S]-GTPγS binding

Molecule: CC(=O)c1c(C)n(CCOc2ccccc2)c2ccccc12 [ST-2]
- EC50 (T98 g cells; Homo sapiens, T98G, 72 h): 21 µM

Molecule: Cc1nccn1CC1CCc2c(c3ccccc3n2C)C1=O (stereo not shown) [ST-3]
- EC50 (μM) (T98 g cells; [5]): inactive

Molecule: CC1=C(CCN2C(=O)COc3ccccc32)c2ccccc2C1C (stereo not shown) [ST-4]
- EC50 (μM) (T98 g cells; [5]): inactive

Molecule: Cc1c(C(=O)Cn2cnc3ccccc3c2=O)c2ccccc2n1C [ST-5]
- EC50 (μM) (T98 g cells; [5]): inactive

Molecule: Cc1c(C(=O)C(F)(F)F)c2ccccc2n1CC(=O)NCc1ccccc1 [ST-6]
- EC50 (μM) (T98 g cells; [5]): inactive

Molecule: O=C1CCCc2c1c1ccccc1n2Cc1ccccc1 [ST-7]
- EC50 (μM) (T98 g cells; [5]): inactive

Molecule: COCCn1c(C)c(C(=O)N2CCC3(CC2)NC(=O)N(C)C3=O)c2ccccc21 [ST-8]
- EC50 (T98 g cells; Homo sapiens, T98G, 72 h): 29 µM

Molecule: COCCn1cc(C(=O)N2CCCC(CN(C)C)C2)c2ccccc21 (stereo not shown) [ST-9]
- EC50 (μM) (T98 g cells; [5]): inactive

Molecule: Cc1ccc(C(=O)c2c(C)n(C)c3ccccc23)c2ccccc12 [ST-10]
- EC50 (T98 g cells; Homo sapiens, T98G, 72 h): 2.9 µM

Molecule: Cc1c(C(=O)c2cccc3ccccc23)c2ccccc2n1C [ST-12]
- EC50 (T98 g cells; Homo sapiens, T98G, 72 h): 3.1 µM

Molecule: CCn1c(C)c(C(=O)c2cccc3ccccc23)c2ccccc21 [ST-13]
- EC50 (T98 g cells; Homo sapiens, T98G, 72 h): 7.9 µM

Molecule: CCCn1cc(C(=O)c2ccc(C)c3ccccc23)c2ccccc21 [ST-14]
- EC50 (μM) (T98 g cells; [5]): inactive

Molecule: CCCn1c(C)c(C(=O)c2cccc3ccccc23)c2ccccc21 [ST-15]
- EC50 (T98 g cells; Homo sapiens, T98G, 72 h): 1.5 µM

Molecule: CCCCCn1cc(C(=O)c2cccc3ccccc23)cc1-c1cc(C)cc(O)c1 [ST-16]
- EC50 (μM) (T98 g cells; [5]): inactive

Molecule: COc1ccc(C(=O)c2c(C)n(CCN3CCOCC3)c3ccccc23)cc1 [ST-17]
- EC50 (T98 g cells; Homo sapiens, T98G, 72 h): 24 µM

Molecule: CCCn1c(C)c(C(=O)c2ccc(C)c3ccccc23)c2ccccc21 [ST-18]
- EC50 (T98 g cells; Homo sapiens, T98G, 72 h): 1.9 µM

Molecule: COc1ccc(C(=O)c2c(C)n(CCN3CCOCC3)c3cc(C)ccc23)cc1 [ST-19]
- EC50 (T98 g cells; Homo sapiens, T98G, 72 h): 7.4 µM

Molecule: O=C(c1cccc2ccccc12)c1cn(CCN2CCOCC2)c2ccccc12 [ST-20]
- EC50 (T98 g cells; Homo sapiens, T98G, 72 h): 23 µM

Molecule: COc1ccc2c(c1)c(C(=O)c1ccc(C)c3ccccc13)c(C)n2CCN1CCOCC1 [ST-21]
- EC50 (T98 g cells; Homo sapiens, T98G, 72 h): 29 µM

Molecule: Cc1ccc(C(=O)c2c(C)n(CCN3CCOCC3)c3ccc(Cl)cc23)c2ccccc12 [ST-22]
- EC50 (T98 g cells; Homo sapiens, T98G, 72 h): 5.4 µM

Molecule: Cc1ccc(C(=O)c2c(C)n(CCN3CCOCC3)c3ncccc23)c2ccccc12 [ST-23]
- GTPγS binding (AI receptors): increase GTP[…]S binding
- EC50 (T98 g cells; Homo sapiens, T98G, 72 h): 3.5 µM
- cross-activation of human CB1 receptors (receptor internalization) (human CB1 receptors): engage CB1 receptors

Molecule: Cc1ccc(C(=O)c2c(C)n(CCN3CCOCC3)c3cc(Cl)ccc23)c2ccccc12 [ST-24]
- EC50 (T98 g cells; Homo sapiens, T98G, 72 h): 1.4 µM

Molecule: Cc1ccc(C(=O)c2c3n(c4ccccc24)CCCC3)c2ccccc12 [ST-25]
- GTPγS binding (AI receptors): increase GTP[…]S binding
- EC50 (T98 g cells; Homo sapiens, T98G, 72 h): 0.634 µM

Molecule: COc1ccc2c(C(=O)c3ccc(C)c4ccccc34)c(C)n(CCN3CCOCC3)c2c1 [ST-26]
- EC50 (T98 g cells; Homo sapiens, T98G, 72 h): 2.5 µM

Molecule: Cc1ccc(C(=O)c2c(C)n(CCN3CCOCC3)c3cc(Cl)cc(Cl)c23)c2ccccc12 [ST-27]
- EC50 (T98 g cells; Homo sapiens, T98G, 72 h): 0.409 µM

Molecule: Cc1ccc(C(=O)c2c(C(F)(F)F)n(CCN3CCOCC3)c3ccccc23)c2ccccc12 [ST-28]
- EC50 (T98 g cells; Homo sapiens, T98G, 72 h): 2.7 µM

Molecule: Cc1ccc(C(=O)c2c(C)n(CC(F)(F)F)c3ccccc23)c2ccccc12 [ST-29]
- GTPγS binding (AI receptors): increase GTP[…]S binding
- EC50 (T98 g cells; Homo sapiens, T98G, 72 h): 1 µM
- cross-activation of human CB2 receptors (receptor internalization) (CB2): engage CB2 receptors

Molecule: Cc1ccc(C(=O)c2c(C)n(C3CC3)c3ccccc23)c2ccccc12 [ST-30]
- EC50 (T98 g cells; Homo sapiens, T98G, 72 h): 1 µM

Molecule: Cc1ccc(C(=O)c2c(C)n(CCN3CCOCC3)c3cnccc23)c2ccccc12 [ST-31]
- EC50 (T98 g cells; Homo sapiens, T98G, 72 h): 20 µM

Molecule: CCCCCn1c2ccccc2c2cc(C(=O)N3CCCCC3)ccc21 [ST-32]
- EC50 (T98 g cells; Homo sapiens, T98G, 72 h): 6.2 µM

Molecule: CCn1c2ccccc2c2cc(C(=O)c3ccc(C)c4ccccc34)ccc21 [ST-34, (9-ethyl-9H-carbazol-3-yl)(4-methylnaphthalen-1-yl)methanone]
- EC50 (T98 g cells; Homo sapiens, T98G, 72 h): 0.077 µM

Molecule: CCCCCn1c2c(c3ccc(OC)cc31)CN(C(=O)c1ccccc1)CC2 [ST-35]
- EC50 (T98 g cells; [6]): ~30 µM

Molecule: COc1ccc2c3cc(C(=O)N4CCCCC4)ccc3n(CC3CCCCC3)c2c1 [ST-36]
- EC50 (T98 g cells; Homo sapiens, T98G, 72 h): 3.7 µM

Molecule: CCN1C(=O)/C(=N\NC(=O)c2cccc3ccccc23)c2ccccc21 [ST-37]
- EC50 (T98 g cells; Homo sapiens, T98G, 72 h): 5.6 µM

Molecule: Cn1cc(C(=O)N2CCCc3ccccc32)c2ccccc21 [ST-40]
- EC50 (μM) (T98 g cells; [5]): inactive

Molecule: COc1ccc2c(c1)c(C(=O)N1CCCC(c3nnc4ccccn34)C1)c(C)n2C (stereo not shown) [ST-41]
- EC50 (μM) (T98 g cells; [5]): inactive

Molecule: COc1ccc2c(c1)c(C(O)N1CCCC(c3nnc4ccccn34)C1)c(C)n2C (stereo not shown) [ST-42]
- EC50 (μM) (T98 g cells; [5]): inactive

Molecule: CC(=O)c1c(C)n(CCCOc2ccccc2)c2ccccc12 [ST-44]
- EC50 (T98 g cells; Homo sapiens, T98G, 72 h): > 20 µM

Molecule: CC(=O)c1c(C)n(CCOc2cccc3ccccc23)c2ccccc12 [ST-45]
- EC50 (T98 g cells; Homo sapiens, T98G, 72 h): 30 µM

Molecule: O=C(c1ccccc1)c1cn(CC(=O)N2CCOCC2)c2ccccc12 [ST-46]
- EC50 (μM) (T98 g cells; [5]): inactive

Molecule: CCn1c(C)c(C(=O)c2ccc(OC)cc2)c2ccccc21 [ST-47]
- EC50 (T98 g cells; Homo sapiens, T98G, 72 h): ~20 µM

Molecule: Cc1ccc(C(=O)c2c(C)n(CCN3CCOCC3)c3ccccc23)c2ccccc12 [ST-48]
- EC50 (T98 g cells; Homo sapiens, T98G, 72 h): 6.7 µM
- cross-activation of human CB1 receptors (receptor internalization) (human CB1 receptors): engage CB1 receptors
- cross-activation of human CB2 receptors (receptor internalization) (CB2): engage CB2 receptors

Molecule: Cc1c(CNN2CCOCC2)nn(C)c1C [ST-49]
- EC50 (μM) (T98 g cells; [5]): inactive

Molecule: CCn1c2ccccc2c2cc(C(=O)N3CCCc4ccccc43)ccc21 [ST-53, (9-ethyl-carbazol-3-yl)(1,2,3,4-tetrahydraquinoline)methanone]
- EC50 (T98 g cells; [6]): 0.516 µM

Molecule: CCCn1c2ccccc2c2cc(C(=O)c3ccc(C)c4ccccc34)ccc21 [ST-58, (9-propyl-carbazol-3-yl)(4-methyl-naphthyl)methanone]
- EC50 (μM) (T98 g cells; [5]): inactive

Molecule: CCn1c2c(c3ccccc31)CN(S(=O)(=O)c1ccc(Cl)c3nonc13)CC2 [ST-59]
- EC50 (μM) (T98 g cells; [5]): inactive

Molecule: CCn1c2ccccc2c2cc(C(=O)N3CCN(C)CC3)ccc21 [ST-62, (9-ethyl-carbazol-3-yl)(N-methylpiperazine)methanone]
- EC50 (μM) (T98 g cells; [5]): inactive

Molecule: CCn1c2ccccc2c2cc(C(=O)c3ccc(C)cc3)ccc21 [ST-63, (9-ethyl-carbazol-3-yl)(p-methylphenyl)methanone]
- EC50 (T98 g cells; [6]): 0.715 µM

Molecule: Cc1ccc(C(=O)n2c3ccccc3c3ccccc32)c2ccccc12 [ST-64]
- EC50 (T98 g cells; [6]): 1.87 µM

Molecule: CCCCCc1cc(O)c2c(c1)OC(C)(C)[C@@H]1CCC(C)=C[C@@H]21 [THC, Δ^9-THC]
- potencies and efficacies at killing these cells [2]: inconsistent potencies and efficacies
